Details: a range is the spread between reports

| Compound | melting point |
| --- | --- |
| CC(C)CC(=O)O | -33 to -29.3 °C |
| CC(=O)OCC(C)C | -99 to -98.8 °C |
| c1ccc2c(c1)CCO2 | -21.5 to -21 °C |
| C=CC(=O)NC(C)(C)C | 128 to 129 °C |
| C=C(C)CC(C)(C)C | -94 to -93 °C |
| Oc1ccc(Cc2ccccc2)cc1 | 83 to 84 °C |
| Cc1cncc(C)c1 | -9 to -6.6 °C |
| CCCCCCCCCCc1ccc(N)cc1 | 24 to 25 °C |
| CCCCCCCCOC(=O)c1cc(O)c(O)c(O)c1 | 99 to 102 °C |
| CC(C)C1CC1 | -113 °C |
| Oc1ccc(Sc2ccc(O)cc2)cc1 | 153 to 155 °C |
| O=[N+]([O-])c1cccc(O)c1 | 94 to 98 °C |
| FC(F)(F)c1ccc(Cl)c(Cl)c1 | -12.5 to -12 °C |
| FC(Br)(Br)Br | -74 to -73.6 °C |
| Nc1cccc(C(=O)O)c1 | 173 to 175 °C |
| CC1=c2ccccc2=NC1c1ccccc1 (stereo unspecified) | 91 to 91.5 °C |
| O=C(c1ccc(Br)cc1)c1ccc(Br)cc1 | 174 to 177 °C |
| CC1=CCCCC1 | -120 °C |
| CCCCC(C)=O | -57 to -55.5 °C |
| O=C1CN(N=Cc2ccc([N+](=O)[O-])o2)C(=O)N1 | 263 to 268 °C |
| Cc1nnc(N)s1 | 224 to 225 °C |

| Compound | melting point |
| --- | --- |
| O=Cc1ccc(-c2ccccc2)cc1 | 59 to 60 °C |
| COC(=O)c1ccccc1OC(C)=O | 51.5 to 52 °C |
| CC(C)(C)C(=O)CC#N | 68 to 71 °C |
| O=C(CCNNC(=O)c1ccncc1)NCc1ccccc1 | 151 to 152 °C |
| CCSSCC | -102 °C |
| CC(C)OC(=O)C=CC(=O)OC(C)C | 2 to 2.1 °C |
| Oc1cc(O)c2ccccc2c1 | 124 to 125 °C |
| O=C(O)c1ccc([N+](=O)[O-])cc1 | 237 to 242 °C |
| Oc1ccnc2ccccc12 | 201 to 203 °C |
| CCC(=O)O | -21.1 to -20.7 °C |
| CC1=CC(=O)OC1=O | 7.5 to 8 °C |
| OCC(Br)(Br)Br | 79 to 81 °C |
| Nc1ccncn1 | 150 to 155 °C |
| Cc1ccc(C#N)cc1 | 28 to 29.5 °C |
| Clc1ccccc1Br | -13 to -12.3 °C |
| Oc1ccccc1F | 15 to 16.1 °C |
| OCc1ccc2c(c1)OCO2 | 53 to 58 °C |
| S=c1nc[nH]c2nc[nH]c12 | 313 to 314 °C |
| O=[N+]([O-])c1ccc2nc[nH]c2c1 | 208 °C |
| Cc1cc(C)c(C)cc1C | 79 to 80 °C |
| CC(C)c1ccc(Cl)cc1 | -12.3 to -12 °C |

| Compound | melting point |
| --- | --- |
| O=C(c1ccccc1)c1ccc(-c2ccccc2)cc1 | 100 to 101 °C |
| BrC1CCCCC1 | -57 to -56.5 °C |
| COc1ccccc1O | 28 to 32 °C |
| Cc1cccc(Cl)c1Cl | 4 to 6 °C |
| CCCOC1CCC2(C)C(CC(=O)C3C2CCC2(C)C(OCCC)CCC32)C1 (stereo unspecified) | 161 to 163 °C |
| C[Si](C)(C)[Si](C)(C)C | 12 to 13.5 °C |
| c1ccc2c(c1)Oc1ccccc1S2 | 57 to 59.5 °C |
| CC(C)(C)CCC(C)(C)C | -13 to -12.6 °C |
| COc1cccc(N)c1 | -1 to 0 °C |
| O=[N+]([O-])c1c(Cl)c(Cl)c(Cl)c(Cl)c1Cl | 142 to 144 °C |
| O=C(O)CCCC(=O)c1ccccc1 | 127 °C |
| CC1=C(/C=C/C(C)=C/C=C/C(C)=C/C=C/C=C(C)/C=C/C=C(C)/C=C/C2=C(C)CCCC2(C)C)C(C)(C)CCC1 | 178 to 183 °C |
| C=CCCCCC(=O)O | -6.5 to -6 °C |
| CCc1nc(N)nc(N)c1-c1ccc(Cl)cc1 | 233 to 234 °C |
| Nc1ccc(Br)cc1 | 63 to 66.4 °C |
| Oc1nc2ccccc2s1 | 138 to 139 °C |
| CN(C)CCC=C1c2ccccc2CCc2ccccc21 | 196 °C |
| O=[N+]([O-])c1cccc(I)c1 | 37 to 38.5 °C |
| BrCCCCOc1ccccc1 | 41 to 42 °C |
| CCCCCCCC(C)C | -75 to -74.6 °C |
| OCc1ccc(CO)cc1 | 118 to 119 °C |

| Compound | melting point |
| --- | --- |
| CCCCNCCCC | -62 to -60 °C |
| N#CCc1ccc(I)cc1 | 48 to 53 °C |
| Cc1ccc(C(=O)O)cc1C | 165 to 166 °C |
| CCCCOC(=O)CCCCCCCCC(=O)OCCCC | -11 to -10 °C |
| C=CCSCC=C | -85 to -83 °C |
| CCN1CCNC(=O)C1=O | 108 to 110 °C |
| CNC(=O)Oc1ccccc1OC(C)C | 90 to 91.5 °C |
| COc1cc(CO)ccc1O | 114 to 115 °C |
| Cc1cc2ccccc2cn1 | 63 to 68 °C |
| CCOC(=O)c1cc(C)n[nH]1 | 82 to 87 °C |
| C=CCCCCCCCCCCCCCCC | 11 to 11.5 °C |
| Cc1c(C2(c3cc(C(C)C)c(O)c(Br)c3C)OS(=O)(=O)c3ccccc32)cc(C(C)C)c(O)c1Br | 200 to 201 °C |
| O=C(CCl)c1ccccc1 | 54 to 56.5 °C |
| COC(=O)c1cc2ccccc2cc1O | 73 to 75.5 °C |
| CCOC(=O)Cc1ccccc1 | -29.4 to -29 °C |
| Cc1ccc(S(=O)(=O)Cl)cc1 | 68 to 71 °C |
| CCNC(=O)C(=O)NCC | 175 to 180 °C |
| O=S(=O)(Cl)c1ccc2ccccc2c1 | 76 to 81 °C |

Source: a melting point compilation (Tetko et al.)
